{"source": "patent US9029403B2", "about": "“Treatment of ovarian cancer with benzylidenebenzohydrazides” (Memorial Sloan-Kettering Cancer Center, priority 2011, dated 2015)", "system": "NSG mice", "assay": "In vivo toxicity in NSG mice", "conditions": "intraperitoneal, 1, 2.5, 5, 10, 20 or 40 mg/kg, once or three times a week for 4 weeks", "description": "The compound designated example 10 above was tested in vivo for toxicity in NSG mice. As used herein, NSG and NSG mice mean the NOD scid gamma (NSG) mice, or an equivalent, available from The Jackson Laboratory and which are the NOD.Cg-Prkdc^scid I12rg^tm1Wj1/SzJ JAX® Mice strain. The NSG mice were injected intraperitoneally with 1, 2.5, 5, 10, 20 or 40 mg/kg of the compound designated example 10 above for once or three times a week for 4 weeks.", "data": [{"smiles": "Cc1ccc(C(=O)N/N=C/c2c(O)ccc3ccccc23)cn1", "note": "[example 10]", "values": [{"measurement": "overt toxicity", "result": "no overt toxicity"}]}]}
